In series [1] the test system is Panc-1 cells. In words: Confocal fluorescence imaging of FITC labeled peptides in cells. In kind it is cell-based. As to conditions: flow cytometry and confocal imaging of FITC-labeled PRTC; Panc-1, AsPc-1, MIA PaCa-2 cells. On the procedure:
To examine whether PRTC could permeate into pancreatic cancer cells, we synthesized fluorescein isothiocyanate (FITC) labeled PRTC, PRTC-m, PRTC-v, PRTC-r (PRTC without RRRRK) as well as TAT (a widely used cell penetrating peptide, as a positive control).
Figure 3 Identification of the permeability of PRTC in Panc-1 cells. (A) Entry of FITC- labeled peptides into Panc-1 cells tested by flow cytometry. FITC-TAT is the positive control. Measurements were performed in triplicate. (B) Quantification of cellular uptake of Panc-1 cells treated with different concentrations of FITC-PRTC. (C) Confocal microscope images of Panc-1 cells treated with 10 μM FITC labeled peptides. Scale bars, 10 μm. (D) Confocal microscope images of Panc-1 cells treated with different dosages of FITC-PRTC. Scale bars, 10 μm.
(In general: In flow cytometry, cells or beads pass a laser one at a time.)

Series [2] concerns the target T1, endogenous CREPT protein in AsPc-1 cells (Homo sapiens, UniProt Q9NQG5).
T1 construct: endogenous protein level of CREPT in Panc-1, AsPc-1 and MIA-PaCa-2 cells; endogenous in cells; host or cells: Panc-1, AsPc-1, MIA PaCa-2
T1 sequence (Q9NQG5 1-326): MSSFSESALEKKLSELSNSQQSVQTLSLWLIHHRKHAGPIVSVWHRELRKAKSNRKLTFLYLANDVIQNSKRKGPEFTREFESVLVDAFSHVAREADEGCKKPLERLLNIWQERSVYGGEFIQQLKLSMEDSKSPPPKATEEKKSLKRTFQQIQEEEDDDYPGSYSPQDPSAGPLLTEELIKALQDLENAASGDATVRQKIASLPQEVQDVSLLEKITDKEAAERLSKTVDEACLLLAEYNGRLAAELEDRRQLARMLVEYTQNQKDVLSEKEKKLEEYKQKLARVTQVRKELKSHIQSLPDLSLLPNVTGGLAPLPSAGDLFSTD
Description: Western blot of endogenous CREPT (degradation). It is filed as cell-based. Particulars: 24 h incubation. On the procedure:
For exogenous immunoprecipitation assays, HEK293T cells were plated in 60 mm dishes and then transfected with the indicated plasmids. After 24 h, cells were harvested using RIPA buffer (50 mM Tris-HCl pH 8.0, 2 mM EDTA pH 8.0, 150 mM NaCl, 1% NP-40, 0.5% sodium deoxycholate, 0.1% SDS) with mixed protease inhibitors. Cell lysates were incubated with 2 μg of the indicated antibodies and 30 μL of protein A/G-Sepharose beads at 4 °C overnight. Beads were eluted five times with lysis buffer (50 mM Tris-HCl pH 7.6, 1 mM EDTA pH 8.0, 165 mM NaCl, 0.5% NP-40), and thereafter, a western blot assay was performed to analyze the association by using the indicated antibodies. Western blot was performed as previously reported. Anti-β-actin and anti-Flag antibodies were purchased from Sigma. Anti-Myc antibody was purchased from Santa Cruz Biotechnology. Antibody against CREPT was produced in the laboratory.
To address whether PRTC could induce CREPT degradation, we examined the endogenous protein level of CREPT in Panc-1, AsPc-1 and MIA-PaCa-2 cells in the presence of different dosages of PRTC. […] Consistently, treatment with PRTC led to decreases in CREPT protein at different times (Figure 5B, S3A). […] To further visualize the degradation process, we stained the endogenous CREPT protein with an antibody against CREPT in the cells treated with FITC-labeled PRTC.
Figure S3. PRTC induces CREPT degradation. […]

Another series deals with HPDE6-C7 cells. In words: Cell proliferation assay. In kind it is cell-based. As to conditions: little CREPT expression. On the procedure:
Cells were seeded into 96-well plates (1000 cells per well) and cultured for the indicated times. Cell viability was evaluated using a CCK-8 kit (Solarbio, Beijing, China). The value of OD450 was calculated by spectrophotometer and presented as the mean ± standard deviation (SD) from three individual experiments. […]
(H) Cell proliferation assay of
HPDE6-C7 cells. […] HPDE6-C7
is anormal pancreatic epithelial cell line.
(1 picture or pasted object on this page, not shown here)

The subject of series [3] is Panc-1 cells. Description: Colony formation. Particulars: 500 cells per well, 10 days, than the control cells. It is filed as cell-based. On the procedure: Cells were seeded into 6-well plates (500 cells per well) and cultured for 10 days, then washed with PBS and stained with 0.1% crystal violet. The number of colonies was counted by ImageJ and presented as the mean ± standard deviation (SD) from three individual experiments.

Series [4] relates to Panc-1 cells. Description: Wound healing. Particulars: 10 μM for 24 h, FBS-free DMEM. In kind it is cell-based. On the procedure:
Cells were seeded in 6-well plates. Monolayer cells were scratched after culturing to obtain at least 95% confluence. Cells were washed with PBS and maintained in FBS-free DMEM and then treated with 10 μM PRTC and PRTC-m for 24 h. Migration distance was observed by microscopy and was measured by ImageJ from three individual experiments.

Another series relates to Panc-1 xenograft tumors. Description: Xenograft tumor model. It is filed as in vivo. Particulars: female Balb/c nude mice, 10 mg/kg intraperitoneal every 2 days for 4 weeks, n=5, in comparison with control mice. On the procedure:
For the xenograft model, 5×10^6 wild-type Panc-1 cells or CREPT knockout Panc-1 cells were subcutaneously injected into 4-week-old female Balb/c nude mice, which were purchased from Beijing Vital River Laboratory Animal Technology Co., Ltd. Each experimental group consisted of five mice. Mice bearing tumors were randomly divided into two groups and administered via intraperitoneal injection control solvent (0.9% saline) or PRTC (dissolved in 0.9% saline, 10 mg/kg) every 2 days for 4 weeks. The body weight of mice were measured every week after treated with 0.9% saline or PRTC. Tumor volume was measured by using the formula V = (a × b^2)/2 (V is volume, a is the length of the tumor, b is the width of the tumor).

“Also recorded” adds a separate entry of the source. Non-standard residues stand in square brackets, D forms with d. Residues, ends and D or L forms follow the SMILES beside them. Hyp = O=C(O)[C@@H]1C[C@@H](O)CN1; Ahx = NCCCCCC(=O)O Bounds are passed on as bounds.

Take `CC[C@H](C)[C@H](N)C(=O)N[C@@H](Cc1ccc(O)cc1)C(=O)N1C[C@H](O)C[C@H]1C(=O)N[C@@H](C)C(=O)N[C@@H](CC(C)C)C(=O)NCCCCCC(=O)N[C@@H](CCCCN)C(=O)N[C@@H](CC(=O)O)C(=O)N[C@H](C(=O)N[C@@H](CC(C)C)C(=O)N[C@@H](CO)C(=O)N[C@@H](CCC(=O)O)C(=O)N[C@@H](CCCCN)C(=O)N[C@@H](CCC(=O)O)C(=O)N[C@@H](CCCCN)C(=O)N[C@@H](CCCCN)C(=O)N[C@@H](CC(C)C)C(=O)N[C@@H](CCC(=O)O)C(=O)N[C@@H](CCC(=O)O)C(=O)N[C@@H](Cc1ccc(O)cc1)C(=O)N[C@@H](CCCCN)C(=O)N[C@@H](CCC(N)=O)C(=O)N[C@@H](CCCCN)C(=O)N[C@@H](CC(C)C)C(=O)N[C@@H](C)C(=O)N[C@@H](CCCNC(=N)N)C(=O)N[C@H](C(=O)N[C@@H](CCCNC(=N)N)C(=O)N[C@@H](CCCNC(=N)N)C(=O)N[C@@H](CCCNC(=N)N)C(=O)N[C@@H](CCCNC(=N)N)C(=O)N[C@@H](CCCCN)C(=O)O)C(C)C)C(C)C` [PRTC] (H-IY[Hyp]AL[Ahx]KDVLSEKEKKLEEYKQKLARVRRRRK-OH; N-terminus and C-terminus assumed): the “time to permeate into pancreatic cancer cells” value with Panc-1 cells [1] was at most 2 h. For the same molecule, the “CREPT protein level upon different dosages” value in series [2] was “dramatically decreased”. Also, in the series on HPDE6-C7 cells, the “cell proliferation of a normal pancreatic epithelial cell line” value is reported as “failed to influence; also recorded: failed to inhibit”. For the same molecule, in the series with Panc-1 cells [3], the colony formation entry was “fewer colonies”. For the same molecule, the “cell movement (wound healing)” value in the series with Panc-1 cells [4] is “decreased cell movement”. For the same molecule, the “tumor weight and size” value in the series on Panc-1 xenograft tumors is listed as “significantly decreases”.

The values above are taken from publication PMC7069095, “A cell-permeable peptide-based PROTAC against the oncoprotein CREPT proficiently inhibits pancreatic cancer” (Theranostics, 2020).
